Reference: patent publication US20230295260A1, “GLP RECEPTOR AGONISTS” (HEPTARES THERAPEUTICS LIMITED, priority 2020, published 2023)
Where two headings read alike, the source gives them in different places. Starred links: 1 amine or outer side, 2 acyl side, 3 side chain; linkers in the order of their positions; H or OH if unused. Non-standard residues stand in square brackets, D forms with d. Residues, ends and D or L forms follow the SMILES beside them. Groups on a side chain read outwards from the residue. *: point of attachment. Malonyl(2,2-Me2,histaminyl) = CC(C)(C(=O)NCCc1cnc[nH]1)C(=O)*; Ala(1H-tetrazol-5-yl) = N[C@@H](Cc1nnn[nH]1)C(=O)O; C18 diacid = O=C(O)CCCCCCCCCCCCCCCCC(=O)*; γGlu = O=C(O)[C@H](CCC(=O)[*:2])N[*:1]; αMeF = C[C@](N)(Cc1ccccc1)C(=O)O; Lauroyl = CCCCCCCCCCCC(=O)*; Nle = CCCC[C@H](N)C(=O)O; AEEA = NCCOCCOCC(=O)O; Aib = CC(C)(N)C(=O)O; Alloc = C=CCOC(=O)*; βAla = NCCC(=O)O

Key:
[1] = target: T1, human GLP1 receptor (Homo sapiens, UniProt P43220); assay: cAMP accumulation assay (HTRF), functional agonism of human GLP1 receptor in HEK cells; format: cell-based; conditions: for EC50: read-out: Human GLP-1R agonist cAMP pEC50 (converted)
T1 construct: expressed in transfected cells; host or cells: HEK cells, BacMam virus transduction
T1 sequence (P43220 24-463): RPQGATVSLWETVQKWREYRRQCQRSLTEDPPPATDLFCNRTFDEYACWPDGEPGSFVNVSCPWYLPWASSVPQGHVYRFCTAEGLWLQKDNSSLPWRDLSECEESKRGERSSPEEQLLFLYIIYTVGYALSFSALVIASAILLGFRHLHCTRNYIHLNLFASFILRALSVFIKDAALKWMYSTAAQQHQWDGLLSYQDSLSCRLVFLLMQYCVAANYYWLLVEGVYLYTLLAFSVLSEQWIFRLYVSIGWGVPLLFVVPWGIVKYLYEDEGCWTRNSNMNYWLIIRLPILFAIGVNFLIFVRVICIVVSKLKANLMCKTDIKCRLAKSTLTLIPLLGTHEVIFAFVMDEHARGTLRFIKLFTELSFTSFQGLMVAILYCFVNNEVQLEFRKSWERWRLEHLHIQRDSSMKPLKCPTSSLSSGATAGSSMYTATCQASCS
Protocol: (§1) The functional activity of the peptides were assessed using a HTRF cAMP assay. pEC50 values are quoted.
(§2) cAMP production upon agonist stimulation of human GLP2 or GLP1 receptor was assessed utilizing HiRange cAMP kit (Cisbio). In brief, HEK cells were infected with either human GLP2 or GLP1 receptor BacMam virus for 24 hours and frozen for later use in the assay. […] Cells were prepared in the assay buffer (HBSS (Lonza) supplemented with 0.5 mM IBMX (Tocris)). After 45 min incubation at 37° C., the reaction was stopped by addition of the HTRF detection reagents in the lysis buffer provided in the kit.

[2] = target: T2, human GLP2 receptor (Homo sapiens, UniProt O95838); assay: cAMP accumulation assay (HTRF), functional agonism of human GLP2 receptor in HEK cells; conditions: for Emax: HEK293, read-out: Human GLP-2R agonist cAMP Emax;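 as to all read-outs here: HEK cells transduced via BacMam to express human GLP2 receptor, agonist-stimulated cAMP measured by HTRF after 45 min at 37 °C in HBSS with 0.5 mM IBMX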
T2 sequence (O95838 1-553): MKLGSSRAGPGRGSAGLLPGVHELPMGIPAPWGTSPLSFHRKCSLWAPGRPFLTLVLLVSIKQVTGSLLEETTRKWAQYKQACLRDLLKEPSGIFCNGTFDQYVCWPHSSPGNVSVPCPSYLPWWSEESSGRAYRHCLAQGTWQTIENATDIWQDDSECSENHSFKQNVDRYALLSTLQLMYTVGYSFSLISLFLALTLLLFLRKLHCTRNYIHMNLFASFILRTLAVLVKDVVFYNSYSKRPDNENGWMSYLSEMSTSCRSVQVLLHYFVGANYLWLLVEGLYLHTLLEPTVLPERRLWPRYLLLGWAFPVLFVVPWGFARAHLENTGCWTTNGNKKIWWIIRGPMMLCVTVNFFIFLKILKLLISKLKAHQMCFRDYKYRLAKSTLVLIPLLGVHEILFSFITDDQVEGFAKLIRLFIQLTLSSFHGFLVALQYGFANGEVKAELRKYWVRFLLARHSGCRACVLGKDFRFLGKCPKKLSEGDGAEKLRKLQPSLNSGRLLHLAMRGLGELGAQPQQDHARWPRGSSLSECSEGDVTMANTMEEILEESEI
Protocol: as §1, §2

[3] = HEK293, HEK cells, human GLP1 receptor BacMam, 45 min 37° C., read-out: Human GLP-1R agonist cAMP Emax
[4] = HEK cells, human GLP1 receptor BacMam, 45 min 37° C.
[5] = HEK293, read-out: Human GLP-1R agonist cAMP Emax

Row | Emax [1, 3] [%] | EC50 [1, 4] [nM] | EC50 [2] [nM] | Compound | Emax [2] [%] | Emax [1, 5] [%] | Human GLP-1R agonist cAMP Emax [1] | Human GLP-2R agonist cAMP Emax ([2]; HEK cells, human GLP2 receptor BacMam, 45 min 37° C.)
1 | 94 | 6.31 | 0.01 | C=CCOC(=O)NCCCC[C@H](NC(=O)[C@H](CC(C)C)NC(=O)[C@H](CC(=O)O)NC(=O)[C@H](CC(C)C)NC(=O)[C@@H](NC(=O)[C@@H](NC(=O)[C@@H](Cc1ccccc1)NC(=O)[C@H](CCCC)NC(=O)[C@H](CCC(=O)O)NC(=O)[C@H](CC(=O)O)NC(=O)[C@H](CO)NC(=O)[C@H](Cc1ccccc1)NC(=O)[C@H](CO)NC(=O)CNC(=O)[C@H](Cc1nn[nH]n1)NC(=O)C(C)(C)C(=O)NCCc1c[nH]cn1)[C@@H](C)O)[C@@H](C)CC)C(=O)NC(C)(C)C(=O)N[C@@H](C)C(=O)N[C@@H](CCCCN)C(=O)N[C@@H](CC(=O)O)C(=O)N[C@@H](Cc1ccccc1)C(=O)N[C@H](C(=O)N[C@@H](CC(N)=O)C(=O)N[C@@H](Cc1c[nH]c2ccccc12)C(=O)N[C@@H](CC(C)C)C(=O)N[C@H](C(=O)N[C@@H](CCC(N)=O)C(=O)N[C@H](C(=O)N[C@@H](CCCCN)C(=O)N[C@H](C(=O)N[C@H](C(=O)N[C@@H](CC(=O)O)C(N)=O)[C@@H](C)O)[C@@H](C)CC)[C@@H](C)O)[C@@H](C)CC)[C@@H](C)CC [Example 18] ({Malonyl(2,2-Me2,histaminyl)}-[Ala(1H-tetrazol-5-yl)]GSFSDE[Nle][dF]TILDLK(Alloc)[Aib]AKDFINWLIQTKITD-NH2) | 102 |  |  | 
2 |  |  |  | C=CCOC(=O)NCCCC[C@H](NC(=O)[C@H](C)NC(=O)C(C)(C)NC(=O)[C@H](CCCCNC(=O)OCC=C)NC(=O)[C@H](CC(N)=O)NC(=O)[C@H](CC(=O)O)NC(=O)[C@H](CC(C)C)NC(=O)C(C)(C)NC(=O)[C@@H](NC(=O)[C@H](CC(N)=O)NC(=O)[C@H](CCCC)NC(=O)[C@H](CCC(=O)O)NC(=O)[C@H](CC(=O)O)NC(=O)[C@H](CO)NC(=O)[C@H](Cc1ccccc1)NC(=O)[C@H](CO)NC(=O)[C@@H](C)NC(=O)[C@H](Cc1nn[nH]n1)NC(=O)C(C)(C)C(=O)NCCc1c[nH]cn1)[C@@H](C)O)C(=O)N[C@@H](CC(=O)O)C(=O)N[C@@H](Cc1ccccc1)C(=O)N[C@H](C(=O)N[C@@H](CC(N)=O)C(=O)N[C@@H](Cc1c[nH]c2ccccc12)C(=O)N[C@@H](CC(C)C)C(=O)N[C@H](C(=O)N[C@@H](CCC(N)=O)C(=O)N[C@H](C(=O)N[C@@H](CCCNC(=N)N)C(=O)N[C@H](C(=O)N[C@H](C(=O)N[C@@H](Cc1ccccc1)C(N)=O)[C@@H](C)O)[C@@H](C)CC)[C@@H](C)O)[C@@H](C)CC)[C@@H](C)CC [Example 8] ({Malonyl(2,2-Me2,histaminyl)}-[Ala(1H-tetrazol-5-yl)][dA]SFSDE[Nle]NT[Aib]LDNK(Alloc)[Aib]AK(Alloc)DFINWLIQTRITF-NH2) | 104 | 93.3 |  | 
3 | 96.4 | 0.1 | 0.01 | C=CCOC(=O)NCCCC[C@H](NC(=O)[C@H](CC(C)C)NC(=O)[C@H](CC(=O)O)NC(=O)[C@H](CC(C)C)NC(=O)[C@@H](NC(=O)[C@@H](NC(=O)[C@@H](Cc1ccccc1)NC(=O)[C@H](CCCC)NC(=O)[C@H](CCC(=O)O)NC(=O)[C@H](CC(=O)O)NC(=O)[C@H](CO)NC(=O)[C@](C)(Cc1ccccc1)NC(=O)[C@H](CO)NC(=O)CNC(=O)[C@H](Cc1nn[nH]n1)NC(=O)C(C)(C)C(=O)NCCc1c[nH]cn1)[C@@H](C)O)[C@@H](C)CC)C(=O)N[C@@H](C)C(=O)N[C@@H](C)C(=O)N[C@@H](CCCCN)C(=O)N[C@@H](CC(=O)O)C(=O)N[C@@H](Cc1ccccc1)C(=O)N[C@H](C(=O)N[C@@H](CC(N)=O)C(=O)N[C@@H](Cc1c[nH]c2ccccc12)C(=O)N[C@@H](CC(C)C)C(=O)N[C@H](C(=O)N[C@@H](CCC(N)=O)C(=O)N[C@H](C(=O)N[C@@H](CCCCN)C(=O)N[C@H](C(=O)N[C@H](C(=O)N[C@@H](CC(=O)O)C(N)=O)[C@@H](C)O)[C@@H](C)CC)[C@@H](C)O)[C@@H](C)CC)[C@@H](C)CC [Example 10] ({Malonyl(2,2-Me2,histaminyl)}-[Ala(1H-tetrazol-5-yl)]GS[αMeF]SDE[Nle][dF]TILDLK(Alloc)AAKDFINWLIQTKITD-NH2) | 101 |  |  | 
4 |  |  |  | Exendin-4 [reference compound] |  |  | 99.7 | 1.6
5 |  |  |  | CCCCCCCCCCCC(=O)NCCC(=O)NCCCC[C@H](NC(=O)[C@H](CC(N)=O)NC(=O)[C@H](CC(=O)O)NC(=O)[C@H](CC(C)C)NC(=O)[C@@H](NC(=O)[C@@H](NC(=O)[C@@H](Cc1ccccc1)NC(=O)[C@H](CCCC)NC(=O)[C@H](CCC(=O)O)NC(=O)[C@H](CC(=O)O)NC(=O)[C@H](CO)NC(=O)[C@H](Cc1ccccc1)NC(=O)[C@H](CO)NC(=O)[C@@H](C)NC(=O)[C@H](Cc1nn[nH]n1)NC(=O)C(C)(C)C(=O)NCCc1c[nH]cn1)[C@@H](C)O)[C@@H](C)CC)C(=O)NC(C)(C)C(=O)N[C@@H](C)C(=O)N[C@@H](CCCCN)C(=O)N[C@@H](CC(=O)O)C(=O)N[C@@H](Cc1ccccc1)C(=O)N[C@H](C(=O)N[C@@H](CC(N)=O)C(=O)N[C@@H](Cc1c[nH]c2ccccc12)C(=O)N[C@@H](CC(C)C)C(=O)N[C@H](C(=O)N[C@@H](CCC(N)=O)C(=O)N[C@H](C(=O)N[C@@H](CCCCN)C(=O)N[C@H](C(=O)N[C@H](C(=O)N[C@@H](Cc1ccccc1)C(N)=O)[C@@H](C)O)[C@@H](C)CC)[C@@H](C)O)[C@@H](C)CC)[C@@H](C)CC [Example 21] ({Malonyl(2,2-Me2,histaminyl)}-[Ala(1H-tetrazol-5-yl)][dA]SFSDE[Nle][dF]TILDNK([βAla-Lauroyl])[Aib]AKDFINWLIQTKITF-NH2; C-terminus assumed) | 99.7 | 91.5 |  | 
6 | 87.6 | 3.16 | 0.0158 | CCCC[C@H](NC(=O)[C@H](CCC(=O)O)NC(=O)[C@H](CC(=O)O)NC(=O)[C@H](CO)NC(=O)[C@H](Cc1ccccc1)NC(=O)[C@H](CO)NC(=O)CNC(=O)[C@H](Cc1nn[nH]n1)NC(=O)C(C)(C)C(=O)NCCc1c[nH]cn1)C(=O)N[C@H](Cc1ccccc1)C(=O)N[C@H](C(=O)N[C@H](C(=O)N[C@@H](CC(C)C)C(=O)N[C@@H](CC(=O)O)C(=O)N[C@@H](CC(C)C)C(=O)N[C@@H](CCCCNC(=O)CC[C@H](NC(=O)COCCOCCNC(=O)COCCOCCNC(=O)CCCCCCCCCCCCCCCCC(=O)O)C(=O)O)C(=O)N[C@@H](C)C(=O)N[C@@H](C)C(=O)N[C@@H](CCCCN)C(=O)N[C@@H](CC(=O)O)C(=O)N[C@@H](Cc1ccccc1)C(=O)N[C@H](C(=O)N[C@@H](CC(N)=O)C(=O)N[C@@H](Cc1c[nH]c2ccccc12)C(=O)N[C@@H](CC(C)C)C(=O)N[C@H](C(=O)N[C@@H](CCC(N)=O)C(=O)N[C@H](C(=O)N[C@@H](CCCCN)C(=O)N[C@H](C(=O)N[C@H](C(=O)N[C@@H](CC(=O)O)C(N)=O)[C@@H](C)O)[C@@H](C)CC)[C@@H](C)O)[C@@H](C)CC)[C@@H](C)CC)[C@@H](C)CC)[C@@H](C)O [Example 22] ({Malonyl(2,2-Me2,histaminyl)}-[Ala(1H-tetrazol-5-yl)]GSFSDE[Nle][dF]TILDLK([γGlu-AEEA-AEEA-C18 diacid])AAKDFINWLIQTKITD-NH2) | 101 |  |  | 
7 |  |  |  | C=CCOC(=O)NCCCC[C@H](NC(=O)[C@H](CC(C)C)NC(=O)[C@H](CC(=O)O)NC(=O)[C@H](CC(C)C)NC(=O)C(C)(C)NC(=O)[C@@H](NC(=O)[C@@H](Cc1ccccc1)NC(=O)[C@H](CCCC)NC(=O)[C@H](CCC(=O)O)NC(=O)[C@H](CC(=O)O)NC(=O)[C@H](CO)NC(=O)[C@H](Cc1ccccc1)NC(=O)[C@H](CO)NC(=O)CNC(=O)[C@H](Cc1nn[nH]n1)NC(=O)C(C)(C)C(=O)NCCc1c[nH]cn1)[C@@H](C)O)C(=O)N[C@@H](C)C(=O)N[C@@H](C)C(=O)NC(C)(C)C(=O)N[C@@H](CC(=O)O)C(=O)N[C@@H](Cc1ccccc1)C(=O)N[C@H](C(=O)N[C@@H](CC(N)=O)C(=O)N[C@@H](Cc1c[nH]c2ccccc12)C(=O)N[C@@H](CC(C)C)C(=O)N[C@H](C(=O)N[C@@H](CCC(N)=O)C(=O)N[C@H](C(=O)N[C@@H](CCCCN)C(=O)N[C@H](C(=O)N[C@H](C(=O)N[C@@H](Cc1ccccc1)C(N)=O)[C@@H](C)O)[C@@H](C)CC)[C@@H](C)O)[C@@H](C)CC)[C@@H](C)CC [Example 5] ({Malonyl(2,2-Me2,histaminyl)}-[Ala(1H-tetrazol-5-yl)]GSFSDE[Nle][dF]T[Aib]LDLK(Alloc)AA[Aib]DFINWLIQTKITF-NH2) | 103 | 93.6 |  | 
